Results as given in US4804676A, “Enkephalinase B inhibitors, their preparation, and pharmaceutical compositions containing the same” (Sankyo Company Limited, priority 1984, dated 1989).
Read-outs that look alike come from different tables or passages of the source.

Columns and labels:
enkephalinase B [1] = target: T1, enkephalinase B (Rattus norvegicus, UniProt O55096); assay: Enkephalinase B inhibition IC50, method of Parker and Waud, substrate 0.1 mM methionine-enkephalin; format: biochemical
T1 construct: from tissue; host or cells: rat brain membrane, Triton X-100 solubilized, purified by DEAE chromatography, chromatofocusing and gel filtration
T1 sequence (O55096 2-738 limits assumed): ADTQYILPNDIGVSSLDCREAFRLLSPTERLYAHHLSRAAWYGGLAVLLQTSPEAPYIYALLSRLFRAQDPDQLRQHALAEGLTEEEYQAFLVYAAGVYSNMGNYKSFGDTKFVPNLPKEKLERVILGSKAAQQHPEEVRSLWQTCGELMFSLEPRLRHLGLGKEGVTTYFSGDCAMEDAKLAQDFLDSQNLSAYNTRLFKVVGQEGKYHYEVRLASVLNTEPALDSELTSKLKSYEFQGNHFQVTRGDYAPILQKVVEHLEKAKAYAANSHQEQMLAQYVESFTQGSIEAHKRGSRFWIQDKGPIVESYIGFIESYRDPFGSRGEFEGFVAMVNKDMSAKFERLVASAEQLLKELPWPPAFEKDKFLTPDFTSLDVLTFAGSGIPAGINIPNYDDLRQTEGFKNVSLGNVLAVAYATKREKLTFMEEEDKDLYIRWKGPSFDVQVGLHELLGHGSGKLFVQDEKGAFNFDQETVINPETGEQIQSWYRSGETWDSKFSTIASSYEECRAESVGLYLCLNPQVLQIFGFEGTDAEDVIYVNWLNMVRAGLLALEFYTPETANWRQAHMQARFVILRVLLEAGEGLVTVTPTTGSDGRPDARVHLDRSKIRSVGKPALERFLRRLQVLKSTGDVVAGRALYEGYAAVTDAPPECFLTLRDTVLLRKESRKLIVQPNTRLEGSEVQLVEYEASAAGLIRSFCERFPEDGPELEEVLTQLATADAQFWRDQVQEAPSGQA
Experimental: (§1) 100 g of rat brain was homogenized using 1 liter of 50 mM tris-HCl buffer (pH 7.7) and the homogenate was centrifuged at 50,000 G for 15 minutes to give a precipitate. The precipitate was washed three times and centrifuged as before. It was then suspended in 500 ml of the same buffer containing 1% of Triton X-100, and kept at 37° C. for 1 hour. The suspension was centrifuged at 100,000 G for 1 hour to give a crude enzyme solution of enkephalinase B as supernatant.
The thus obtained crude enzyme solution was dialyzed against a 5 mM sodium phosphate buffer (pH 7.0) and was applied for adsorption to a column (3.0×30 cm) of DEAE-Sephacel (produced by Pharmacia Co. Ltd.) previously equilibrated with the same buffer containing 1% Triton X-100 (solution A). The column was washed with solution A and eluted with 2.5 liters of solution A and with 2.5 liters of solution A which contains 0.4M sodium chloride by the linear concentration gradient method. […]
A mixture of 40 μl of 0.1M sodium phosphate buffer (pH 6.5), 10 μl of a Propioxatin A solution and 40 μl of an enkephalinase B solution was incubated at 37° C. for 5 minutes, then 10 μl of a 1 mM or 10 mM methionine-enkephalin solution were added, followed by stirring at 37° C. for 20 minutes. The reaction was then stopped by adding 10 μl of 2N hydrochloric acid to the reaction mixture, and the amount of tyrosyl-glycine (Tyr-Gly) produced (Vi) with respect to 20 μl of the reaction mixture was determined by high pressure liquid chromatography. Similarly, the amount of tyrosyl-glycine produced (V) in a blank test, in which no Propioxatin was contained and only a buffer was used, was measured. […]
By way of comparison, the enkephalinase B inhibition activity was also measured for the compound N-[3-(N-hydroxycarbamoyl)-2-benzylpropanoyl]alanine, which is a compound within formula (I) of the above-mentioned French patent specification No. 2 518 088 (Japanese laid-open application No. 58-150547). […]

enkephalinase B [2] = target: T1, enkephalinase B; assay: Enzymatic properties of purified enkephalinase B (Michaelis constant); format: biochemical; details: purified rat brain enkephalinase B
Experimental: as §1
(§2) The thus obtained crude enzyme solution was dialyzed against a 5 mM sodium phosphate buffer (pH 7.0) and was applied for adsorption to a column (3.0×30 cm) of DEAE-Sephacel (produced by Pharmacia Co. Ltd.) previously equilibrated with the same buffer containing 1% Triton X-100 (solution A). The column was washed with solution A and eluted with 2.5 liters of solution A and with 2.5 liters of solution A which contains 0.4M sodium chloride by the linear concentration gradient method.
(§3) The obtained fraction of enkephalinase B was dialyzed against solution A, and was applied for adsorption to a column (1.6×27 cm) of DEAE-Toyopearl 670S (produced by Toyo Soda Kogyo K.K.) previously equilibrated with solution A. Elution was carried out using 500 ml of solution A and 500 ml of a solution of 0.4M sodium chloride dissolved in solution A by the linear concentration gradient method. […]

rat = assay: Analgesic action by the Randall-Selitto method after administration into the cerebral ventricle; format: in vivo
Experimental: Propioxatin A (10 μg) and enkephalin (1 mg) were administered simultaneously into the cereberal ventricle of a rat and the analgesic action thereof was examined by the Randall-Selitto method (Randall, L. D. and Selitto, J. J.; Arch. Int. Pharmacodyn. 111, 409-419 (1957)). The same quantities of Propioxatinn A and enkephalin were also administered separately, as controls.

Solubility = format: physicochemical
enkephalinase B [3] = target: T1, enkephalinase B; assay: Inhibition of enkephalinase B, Ki by the method of Dixon (Tyr-Gly released from methionine-enkephalin, HPLC); format: biochemical; details: for Ki: enkephalinase B, pH 6.5, 37° C., methionine-enkephalin substrate, method of Dixon, read-out: Ki value (inhibition constant)
Experimental: The presence of the desired substances, Propioxatins A and B, can be assessed quantitavely during the processes of cultivation and purification by measuring the enkephalinase B inhibition activity. To do this, methionine-enkephalin is incubated with an enkephalinase B solution containing the Propioxatin, and then the amount of the resulting product tyrosyl-glycine (Tyr-Gly) is estimated by chromatography (e.g. thin layer chromatography or high pressure liquid chromatography). A blank test without Propioxatin is also carried out, and the enkephalinase B inhibition constant is determined. The enkephalinase B solution used for this technique can be prepared from rat brain by generally-known enzyme purification methods. Since enkephalinase B exists in rat brain as a membrane-bound enzyme, it is released from the membrane and made soluble using a detergent such as Triton X-100. The solubilized enzyme is then subjected to a combination of purification processes such as ion-exchange chromatography in which various kinds of ion-exchangers having a diethylaminoethyl (DEAE) group can be used, gel filtration using a molecular sieve, or isoelectric fractionation to obtain the purified enkephalinase B. These methods are described in greater detail hereinafter in the Examples.
as §1, §2, §3

[4] = enkephalin 1 mg, Propioxatin A 10 μg

SMILES	Solubility in ethanol and acetone (Solubility)	Solubility in ethyl acetate, chloroform, benzene and ether (Solubility)	Solubility in water, methanol and dimethyl sulfoxide (Solubility)	type of inhibition of enkephalinase B (enkephalinase B [3])	Ki (enkephalinase B [3]) [nM]	other results
C[C@H](NC(=O)C(CC(=O)NO)Cc1ccccc1)C(=O)O (stereo partly drawn) [Compound of FR 2 518 088, N-[3-(N-hydroxycarbamoyl)-2-benzylpropanoyl]alanine, reference compound]						IC50 (enkephalinase B [1]): 44200 nM
CSCC[C@H](NC(=O)[C@H](Cc1ccccc1)NC(=O)CNC(=O)CNC(=O)[C@@H](N)Cc1ccc(O)cc1)C(=O)O [Methionine-enkephaline, Tyr-Gly-Gly-Phe-Met]						Km value relative to Methionine-enkephaline (Michaelis constant) (enkephalinase B [2]): 53 µM
CCC[C@H](CC(=O)NO)C(=O)N1CCC[C@H]1C(=O)N[C@H](C(=O)O)C(C)C [Propioxatin A]	slightly soluble	insoluble	Soluble	competitive inhibitor	13	IC50 (enkephalinase B [1]; enkephalinase B, substrate 0.1 mM methionine-enkephalin, read-out: IC50 (converted)): 29.9 nM; more active than the prior art compound (enkephalinase B [1]; ratio to the compound of FR 2 518 088, enkephalinase B IC50): approximately 1,000; analgesic effect (rat; Propioxatin A 10 μg injected alone): No appreciable analgesic effect; prolonging the analgesic action of enkephalin (rat; Propioxatin A 10 μg with enkephalin 1 mg): significantly effective
CC(C)C[C@H](CC(=O)NO)C(=O)N1CCC[C@H]1C(=O)N[C@H](C(=O)O)C(C)C [Propioxatin B]	slightly soluble	insoluble	Soluble	competitive inhibitor	110	
CC(C)C[C@H](NC(=O)[C@H](Cc1ccccc1)NC(=O)CNC(=O)CNC(=O)[C@@H](N)Cc1ccc(O)cc1)C(=O)O [enkephalin]						time for analgesic effect to fall to 50% of its peak value (rat; [4]): about 30 minutes; time of peak value of analgesic effect after injection (rat; [4]): approximately 10 minutes
